Here are results for 59 sequences from the supplement of paper PMC11208160.
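Note: IS621 recombinase and bridge RNA in Escherichia coli cells.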

This series in a line: recombinant barcode read abundance after kanamycin selection (control-corrected) (log10(CPM+1)); higher = more efficient recombination; sequences stand for … in AGTGCAGAGAAAATCGGCCAGTTTTCTCTGCCTGCAGTCCGCATGCCGT…AGATTTATGCAGCGGACTGCCTTTCTCCCAAAGTGATAAACCGGACAGTATCATGGACCGGTTTTCCCGGTAATCCGTATTTGCAAGGTTGGTTTCACT; site = the 11-nt target. The procedure, abridged: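 In E. coli, a pooled library matched targets to IS621 bridge RNA target-binding loops and was introduced alongside a donor plasmid. Cells went onto chloramphenicol/ampicillin/kanamycin with 0.1 mM IPTG or onto chloramphenicol/ampicillin LB agar as control, in duplicate. Recombination efficiency, from recombinant-junction barcodes as counts per million, is averaged and control-corrected. It is reported as log10(CPM+1).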
Take “GTCCCTCCTTGGGTTCTAACCTGTTGCTT (site GTCCCTCCTAA)”: the “recombinant barcode read abundance (log10)” value turned out to be 0.94.

As to “GTCCCTCCTTGGGTTCTAACCTGTTGCTT (site GTCCCTCCTAC)”, the “recombinant barcode read abundance (log10)” value is 0.104.

“GTCCCTCCTTGGGTTCTAACCTGTTGCTT (site GTCCCTCCTAG)”: the “recombinant barcode read abundance (log10)” value was found to be 0.201.

For the sequence “GTCCCTCCTTGGGTTCTAACCTGTTGCTT (site GTCCCTCCTAT)”, the “recombinant barcode read abundance (log10)” value is 0.453.

In the case of “GTCCGTCCTTGGGTTCTAACCTGTTGCAT (site GTCCGTCCTAA)”, the “recombinant barcode read abundance (log10)” value was 0.178.

In the case of “GTCCGTCCTTGGGTTCTAACCTGTTGCAT (site GTCCGTCCTAC)”, the “recombinant barcode read abundance (log10)” value came to 0.688.

Regarding “GTCCGTCCTTGGGTTCTAACCTGTTGCAT (site GTCCGTCCTAG)”, the “recombinant barcode read abundance (log10)” value came to 0.129.

For “GTCCGTCCTTGGGTTCTAACCTGTTGCAT (site GTCCGTCCTAT)”, the “recombinant barcode read abundance (log10)” value amounted to 1.77.

For “GTCCTAACTTGGGTTCTAACCTGTTGCAC (site GTCCTAACTGT)”, the “recombinant barcode read abundance (log10)” value was found to be 2.08.

Regarding “GTCCTAACTTGGGTTCTAACCTGTTGCAC (site GTCCTACCTTT)”, the “recombinant barcode read abundance (log10)” value was 0.0749.

As to “GTCCTACCTTGGGTTCTAACCTGTTGCCT (site GTCATACCTAG)”, the “recombinant barcode read abundance (log10)” value stood at 0.0144.

Consider “GTCCTACCTTGGGTTCTAACCTGTTGCCT (site GTCCTACCTAG)”, for which the “recombinant barcode read abundance (log10)” value came out at 1.54.

For “GTCCTACCTTGGGTTCTAACCTGTTGCCT (site GTCGTACCTAG)”, the “recombinant barcode read abundance (log10)” value stood at 0.503.

With “GTCCTACCTTGGGTTCTAACCTGTTGCCT (site GTCTTACCTAG)”, the “recombinant barcode read abundance (log10)” value was 0.588.

As to “GTCGACACTTGGGTTCTAACCTGTTGCCT (site GTCGACACTAG)”, the “recombinant barcode read abundance (log10)” value was 1.5.

For the sequence “GTCGACACTTGGGTTCTAACCTGTTGCCT (site GTCGAGTCTAG)”, the “recombinant barcode read abundance (log10)” value amounted to 0.126.

Consider “GTCGACGCTTGGGTTCTAACCTGTTGCCT (site GTCGACCCTAG)”, for which the “recombinant barcode read abundance (log10)” value worked out at 0.158.

In the case of “GTCGACGCTTGGGTTCTAACCTGTTGCCT (site GTCGACGCTAG)”, the “recombinant barcode read abundance (log10)” value worked out at 0.635.

For the sequence “GTCGCCACTTGGGTTCTAACCTGTTGCCT (site GTAGCCACTAG)”, the “recombinant barcode read abundance (log10)” value amounted to 0.239.

As for “GTCGCCACTTGGGTTCTAACCTGTTGCCT (site GTCGCCACTAG)”, the “recombinant barcode read abundance (log10)” value turned out to be 0.0549.

For the sequence “GTCGCCACTTGGGTTCTAACCTGTTGCCT (site GTGGCCACTAG)”, the “recombinant barcode read abundance (log10)” value came out at 0.159.

“GTCGCCACTTGGGTTCTAACCTGTTGCCT (site GTTGCCACTAG)”: the “recombinant barcode read abundance (log10)” value was 0.196.

For “GTCGCGGCTTGGGTTCTAACCTGTTGCCT (site GTCGCGACTAG)”, the “recombinant barcode read abundance (log10)” value is 0.454.

Turning to “GTCGCGGCTTGGGTTCTAACCTGTTGCCT (site GTCGCGCCTAG)”, the “recombinant barcode read abundance (log10)” value came out at 0.182.

Turning to “GTCGCGGCTTGGGTTCTAACCTGTTGCCT (site GTCGCGGCTAG)”, the “recombinant barcode read abundance (log10)” value was 0.418.

On to “GTCGCGGCTTGGGTTCTAACCTGTTGCCT (site GTCGCGTCTAG)”, for which the “recombinant barcode read abundance (log10)” value was determined as 0.324.

As for “GTCGCGTCTTGGGTTCTAACCTGTTGCCT (site GTCGCGACTAG)”, the “recombinant barcode read abundance (log10)” value stood at 0.198.

In the case of “GTCGCGTCTTGGGTTCTAACCTGTTGCCT (site GTCGCGCCTAG)”, the “recombinant barcode read abundance (log10)” value stood at 0.738.

Turning to “GTCGCGTCTTGGGTTCTAACCTGTTGCCT (site GTCGCGGCTAG)”, the “recombinant barcode read abundance (log10)” value came to 0.392.

In the case of “GTCGCGTCTTGGGTTCTAACCTGTTGCCT (site GTCGCGTCTAG)”, the “recombinant barcode read abundance (log10)” value is 0.328.

Take “GTCGGAGCTTGGGTTCTAACCTGTTGCCG (site GTCGGAGCTCA)”: the “recombinant barcode read abundance (log10)” value was found to be 0.0109.

On to “GTCGGAGCTTGGGTTCTAACCTGTTGCCG (site GTCGGAGCTCC)”, for which the “recombinant barcode read abundance (log10)” value is 0.152.

“GTCGGAGCTTGGGTTCTAACCTGTTGCCG (site GTCGGAGCTCG)”: the “recombinant barcode read abundance (log10)” value came to 0.218.

Consider “GTCGGAGCTTGGGTTCTAACCTGTTGCCG (site GTCGGAGCTCT)”, for which the “recombinant barcode read abundance (log10)” value was 0.435.

As to “GTCGGAGCTTGGGTTCTAACCTGTTGCGG (site GTCGGAGCTCA)”, the “recombinant barcode read abundance (log10)” value stood at 0.282.

Consider “GTCGGAGCTTGGGTTCTAACCTGTTGCGG (site GTCGGAGCTCC)”, for which the “recombinant barcode read abundance (log10)” value was 1.97.

For “GTCGGAGCTTGGGTTCTAACCTGTTGCGG (site GTCGGAGCTCG)”, the “recombinant barcode read abundance (log10)” value amounted to 0.0393.

For the sequence “GTCGGAGCTTGGGTTCTAACCTGTTGCGG (site GTCGGAGCTCT)”, the “recombinant barcode read abundance (log10)” value is 1.29.

With “GTCGGAGCTTGGGTTCTAACCTGTTGCTG (site GTCGGAGCTCA)”, the “recombinant barcode read abundance (log10)” value was 0.757.

With “GTCGGAGCTTGGGTTCTAACCTGTTGCTG (site GTCGGAGCTCC)”, the “recombinant barcode read abundance (log10)” value was determined as 0.511.

Regarding “GTCGGAGCTTGGGTTCTAACCTGTTGCTG (site GTCGGAGCTCG)”, the “recombinant barcode read abundance (log10)” value came out at 0.353.

For “GTCGGAGCTTGGGTTCTAACCTGTTGCTG (site GTCGGAGCTCT)”, the “recombinant barcode read abundance (log10)” value turned out to be 0.737.

As for “GTCGGCACTTGGGTTCTAACCTGTTGCCT (site GTCGGAACTAG)”, the “recombinant barcode read abundance (log10)” value was 0.359.

For the sequence “GTCGGCACTTGGGTTCTAACCTGTTGCCT (site GTCGGCACTAG)”, the “recombinant barcode read abundance (log10)” value is 0.491.

On to “GTCGGCACTTGGGTTCTAACCTGTTGCCT (site GTCGGGACTAG)”, for which the “recombinant barcode read abundance (log10)” value is 0.653.

Consider “GTCGGCACTTGGGTTCTAACCTGTTGCCT (site GTCGGTACTAG)”, for which the “recombinant barcode read abundance (log10)” value turned out to be 0.221.

“GTCGGCGCTTGGGTTCTAACCTGTTGCCT (site GTAGGCGCTAG)”: the “recombinant barcode read abundance (log10)” value was 0.107.

“GTCGGCGCTTGGGTTCTAACCTGTTGCCT (site GTCGGCGCTAG)”: the “recombinant barcode read abundance (log10)” value was determined as 0.912.

“GTCGGCGCTTGGGTTCTAACCTGTTGCCT (site GTGGGCGCTAG)”: the “recombinant barcode read abundance (log10)” value stood at 0.531.

In the case of “GTCGGCGCTTGGGTTCTAACCTGTTGCCT (site GTTGGCGCTAG)”, the “recombinant barcode read abundance (log10)” value stood at 0.256.

As to “GTCGGGACTTGGGTTCTAACCTGTTGCCT (site GTCGGAACTAG)”, the “recombinant barcode read abundance (log10)” value was determined as 0.863.

“GTCGGGACTTGGGTTCTAACCTGTTGCCT (site GTCGGCACTAG)”: the “recombinant barcode read abundance (log10)” value stood at 0.113.

Consider “GTCGGGACTTGGGTTCTAACCTGTTGCCT (site GTCGGGACTAG)”, for which the “recombinant barcode read abundance (log10)” value is 1.51.

With “GTCGGGACTTGGGTTCTAACCTGTTGCCT (site GTCGGTACTAG)”, the “recombinant barcode read abundance (log10)” value was 0.0446.

Regarding “GTCGTAGCTTGGGTTCTAACCTGTTGCCT (site GACGTAGCTAG)”, the “recombinant barcode read abundance (log10)” value is 0.464.

As for “GTCGTAGCTTGGGTTCTAACCTGTTGCCT (site GCCGTAGCTAG)”, the “recombinant barcode read abundance (log10)” value was 0.0842.

Regarding “GTCGTAGCTTGGGTTCTAACCTGTTGCCT (site GGCGTAGCTAG)”, the “recombinant barcode read abundance (log10)” value amounted to 0.116.

Consider “GTCGTAGCTTGGGTTCTAACCTGTTGCCT (site GTCGTAGCTAG)”, for which the “recombinant barcode read abundance (log10)” value was 0.256.

“GTCTAAGCTTGGGTTCTAACCTGTTGCCT (site GTCTAAGCTAG)”: the “recombinant barcode read abundance (log10)” value amounted to 0.171.
